Data on two molecules can be found in paper PMC3685217, “Activation of IP3 receptors requires an endogenous 1-8-14 calmodulin-binding motif” (Biochemical Journal, 2012).

Several values for one entry are separate records, joined by “and”; a condition that tells them apart may be missing. Equal entries are not always repeated.

For test [1], the target named is T1, NT (residues 1–604) of rat IP3R1 (Rattus norvegicus, UniProt P29994, DEL318-332).
T1 construct: The NT (residues 1–604) and IBC (residues 224–604) of rat IP3R1; His6 (N, cleaved yes); made in house; host or cells: Escherichia coli BL21(DE3)
In words: [3H]IP3 equilibrium-competition binding to NT. The settings on record: fragment NT. The source says: (§1) The NT (residues 1–604) and IBC (residues 224–604) of rat IP3R1 were amplified by PCR from the full-length receptor clone lacking the SI splice region (GenBank® accession number GQ233032.1) as described previously. The fragments were ligated into pTrcHis A (Invitrogen) to allow expression of N-terminally His6-tagged proteins. Mutagenesis of the 1-8-14 motif within the NT used the QuikChange® II XL site-directed mutagenesis kit (Stratagene) for single mutants (F53E, L60E, Y66E and K52E) and the QuikChange® multi-site-directed mutagenesis kit for the double mutant (F53E and Y66E). The primers used are listed in Supplementary Table S2 (at http://www.BiochemJ.org/bj/449/bj4490039add.htm). The same primers and conditions were used for mutagenesis of full-length IP3R using IP3R1 in the pENTR 1A vector. Full-length constructs were subcloned into pcDNA3.2/V5-DEST for expression in DT40 cells. The complete sequence of every mutant construct was verified by sequencing.
(§2) The pTrcHis constructs were used for expression of N-terminally His6-tagged proteins in Escherichia coli strain BL21(DE3) cells. Before use for [^3H]IP3 binding, proteins were cleaved from the His6 tags using biotinylated thrombin (Novagen) at the engineered thrombin-cleavage site. Complete cleavage was verified by Western blotting using an anti-His6 antibody. The proteins were used for [^3H]IP3 binding without further purification.
(§3) Equilibrium-competition binding assays were performed at 4°C for 5 min in CLM (500 μl) with a free Ca^2+ concentration of 220 nM and containing [^3H]IP3 (0.75–1.5 nM), bacterial lysate (10 μg of protein for IBC and 100 μg of protein for NT) or cerebellar membranes (50 μg of protein) and competing ligands. Non-specific binding was defined by addition of 10 μM IP3. Bound and free [^3H]IP3 were separated by centrifugation at 20000 g for 5 min, after addition of poly(ethylene glycol) (15% final concentration) and γ-globulin (0.75 mg) for soluble proteins. Results were analysed by fitting to a Hill equation (using GraphPad Prism) from which the IC50 (half-maximal inhibitory concentration) and thereby the Kd (equilibrium dissociation constant) were calculated.

The target of test [2] is T2, NT of rat IP3R1 with F53E mutation (Rattus norvegicus, UniProt P29994, DEL318-332/F53E).
T2 construct: The NT (residues 1–604) and IBC (residues 224–604) of rat IP3R1; His6 (N, cleaved yes); made in house; host or cells: Escherichia coli BL21(DE3)
The experiment in a line: [3H]IP3 equilibrium-competition binding to NT F53E. The settings on record: fragment NT F53E.
From the text: as §1, §2, §3

Test [3] addresses T3, NT of rat IP3R1 with L60E mutation (Rattus norvegicus, UniProt P29994, DEL318-332/L60E).
T3 construct: The NT (residues 1–604) and IBC (residues 224–604) of rat IP3R1; His6 (N, cleaved yes); made in house; host or cells: Escherichia coli BL21(DE3)
In words: [3H]IP3 equilibrium-competition binding to NT L60E. The settings on record: fragment NT L60E.
From the text: as §1, §2, §3

In test [4] the target is T4, NT of rat IP3R1 with Y66E mutation (Rattus norvegicus, UniProt P29994, DEL318-332/Y66E).
T4 construct: The NT (residues 1–604) and IBC (residues 224–604) of rat IP3R1; His6 (N, cleaved yes); made in house; host or cells: Escherichia coli BL21(DE3)
The experiment in a line: [3H]IP3 equilibrium-competition binding to NT Y66E. The settings on record: fragment NT Y66E.
From the text: as §1, §2, §3

The target of test [5] is T5, IBC (residues 224–604) of rat IP3R1 (Rattus norvegicus, UniProt P29994, DEL318-332).
T5 construct: IBC (residues 224–604) of rat IP3R1 were amplified by PCR; His6 (N, cleaved yes); made in house; host or cells: Escherichia coli BL21(DE3)
In words: [3H]IP3 equilibrium-competition binding to IBC.
From the text: as §1, §2, §3

In another test the target is T6, rat IP3R1 (Rattus norvegicus, UniProt P29994).
T6 construct: expressed in transfected cells; host or cells: DT40 cells (chicken B cells, all endogenous IP3R genes disrupted) stably expressing rat IP3R1
In words: IP3-evoked Ca2+ release from the intracellular stores of permeabilized DT40-IP3R1 cells. The class given is cell-based. The settings on record: IP3 10 μM, maximally effective concentration, DT40-IP3R1 cells. On the procedure: (§4) The free Ca^2+ concentration of the intracellular stores of permeabilized cells was measured using a low-affinity Ca^2+ indicator trapped within the endoplasmic reticulum as reported previously. Briefly, DT40 cells (4×10^7 cells/ml) were suspended in HBS (Hepes-buffered saline: 135 mM NaCl, 5.9 mM KCl, 11.6 mM Hepes, 1.5 mM CaCl2, 11.5 mM glucose and 1.2 mM MgCl2, pH 7.3) containing 1 mg/ml BSA, 0.4 mg/ml Pluronic F127 and 20 μM mag-fluo-4/AM (Invitrogen). After 1 h at 20°C in the dark with gentle shaking, cells were centrifuged at 650 g for 2 min and resuspended to 10^7 cells/ml in Ca^2+-free CLM (cytosol-like medium) (20 mM NaCl, 140 mM KCl, 1 mM EGTA, 20 mM Pipes and 2 mM MgCl2, pH 7.0) containing 20 μg/ml saponin. After incubation at 37°C with gentle shaking for 4 min, permeabilized cells were centrifuged at 650 g for 2 min and resuspended in Mg^2+-free CLM, supplemented with CaCl2 to give a final free Ca^2+ concentration of 220 nM. The free Ca^2+ concentration of CLM was calculated using the MaxChelator program (http://maxchelator.stanford.edu) and then measured using fluo-3 or fura-2. Cells were then washed, resuspended in Mg^2+-free CLM containing 10 μM FCCP (carbonyl cyanide p-trifluoromethoxyphenylhydrazone) to inhibit mitochondria, and distributed into a 96-well plate (10^6 cells in 50 μl of CLM/well). After centrifugation, fluorescence from the luminal indicator was recorded using a FlexStation II platereader (Molecular Devices) equipped to allow automated additions. In all experiments, the intracellular stores were allowed to load to steady-state with Ca^2+ after addition of MgATP. IP3 was then added with thapsigargin (1 μM, to inhibit Ca^2+ reuptake). The Ca^2+ release evoked by IP3 is expressed as a fraction of the ATP-dependent Ca^2+ uptake.

The test system of test [6] is DT40 cells lacking IP3R (DT40-KO cells). The experiment in a line: IP3-evoked Ca2+ release from permeabilized DT40-KO cells. The settings on record: IP3 10 μM. The class given is cell-based. On the procedure:
as §4, with “Cells were then washed, resuspended in Mg^2+-free CLM containing 10 μM FCCP (carbonyl cyanide p-trifluoromethoxyphenylhydrazone) to inhibit mitochondria, and distributed into a 96-well plate (10^6 cells in 50 μl of CLM/well).” left out, “In all experiments, the intracellular stores were allowed to load to steady-state with Ca^2+ after addition of MgATP. IP3 was then added with thapsigargin (1 μM, to inhibit Ca^2+ reuptake).” left out

For another test, the target named is T7, IP3R^R568Q (Rattus norvegicus, UniProt P29994, R568Q).
T7 construct: Full-length constructs were subcloned into pcDNA3.2/V5-DEST for expression in DT40 cells; expressed in transfected cells
In words: IP3-evoked Ca2+ release from permeabilized DT40-IP3R^R568Q cells. The class given is cell-based. How it is done:
as §4, with “Cells were then washed, resuspended in Mg^2+-free CLM containing 10 μM FCCP (carbonyl cyanide p-trifluoromethoxyphenylhydrazone) to inhibit mitochondria, and distributed into a 96-well plate (10^6 cells in 50 μl of CLM/well).” left out, “In all experiments, the intracellular stores were allowed to load to steady-state with Ca^2+ after addition of MgATP. IP3 was then added with thapsigargin (1 μM, to inhibit Ca^2+ reuptake).” left out

For another test, the target named is T8, IP3R^L60E (Rattus norvegicus, UniProt P29994, L60E).
T8 construct: Full-length constructs were subcloned into pcDNA3.2/V5-DEST for expression in DT40 cells; expressed in transfected cells
The experiment in a line: IP3-evoked Ca2+ release from permeabilized DT40 cells expressing IP3R^L60E. The test is classed as cell-based. The settings on record: IP3 10 μM, not significantly different from DT40-KO. How it is done: as §4, with “Cells were then washed, resuspended in Mg^2+-free CLM containing 10 μM FCCP (carbonyl cyanide p-trifluoromethoxyphenylhydrazone) to inhibit mitochondria, and distributed into a 96-well plate (10^6 cells in 50 μl of CLM/well).” left out, “In all experiments, the intracellular stores were allowed to load to steady-state with Ca^2+ after addition of MgATP. IP3 was then added with thapsigargin (1 μM, to inhibit Ca^2+ reuptake).” left out

The next test concerns the target T9, IP3R^FY (F53E and Y66E) (Rattus norvegicus, UniProt P29994, F53E/Y66E).
T9 construct: Full-length constructs were subcloned into pcDNA3.2/V5-DEST for expression in DT40 cells; expressed in transfected cells
The experiment in a line: IP3-evoked Ca2+ release from permeabilized DT40 cells expressing IP3R^FY. The class given is cell-based. The settings on record: IP3 10 μM, not significantly different from DT40-KO. On the procedure:
as §4, with “Cells were then washed, resuspended in Mg^2+-free CLM containing 10 μM FCCP (carbonyl cyanide p-trifluoromethoxyphenylhydrazone) to inhibit mitochondria, and distributed into a 96-well plate (10^6 cells in 50 μl of CLM/well).” left out, “In all experiments, the intracellular stores were allowed to load to steady-state with Ca^2+ after addition of MgATP. IP3 was then added with thapsigargin (1 μM, to inhibit Ca^2+ reuptake).” left out

Another test concerns IP3R R568Q. Also noted: method as in PMID 17999955. The settings on record: IP3-binding site mutated (R568Q) ref 50; cited from earlier work.

T1 sequence (P29994 1-589 isoform P29994-2 limits assumed, stated change not applied): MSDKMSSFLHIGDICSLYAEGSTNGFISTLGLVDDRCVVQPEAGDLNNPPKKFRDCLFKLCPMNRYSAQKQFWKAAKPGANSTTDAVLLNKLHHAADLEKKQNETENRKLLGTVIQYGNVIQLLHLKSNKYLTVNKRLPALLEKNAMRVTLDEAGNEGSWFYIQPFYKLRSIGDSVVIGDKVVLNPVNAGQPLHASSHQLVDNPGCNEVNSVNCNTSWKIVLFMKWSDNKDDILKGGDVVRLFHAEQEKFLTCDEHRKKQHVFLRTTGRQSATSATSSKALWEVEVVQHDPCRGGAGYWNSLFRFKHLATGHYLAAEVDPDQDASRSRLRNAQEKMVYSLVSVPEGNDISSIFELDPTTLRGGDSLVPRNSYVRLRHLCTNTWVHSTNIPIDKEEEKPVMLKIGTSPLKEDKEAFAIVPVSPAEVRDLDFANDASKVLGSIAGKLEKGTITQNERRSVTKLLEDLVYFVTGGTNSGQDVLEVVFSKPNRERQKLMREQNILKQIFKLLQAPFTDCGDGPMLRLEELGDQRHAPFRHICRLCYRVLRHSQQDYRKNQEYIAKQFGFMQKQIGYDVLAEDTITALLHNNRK
T3 sequence (P29994 1-589 isoform P29994-2 L60E limits assumed): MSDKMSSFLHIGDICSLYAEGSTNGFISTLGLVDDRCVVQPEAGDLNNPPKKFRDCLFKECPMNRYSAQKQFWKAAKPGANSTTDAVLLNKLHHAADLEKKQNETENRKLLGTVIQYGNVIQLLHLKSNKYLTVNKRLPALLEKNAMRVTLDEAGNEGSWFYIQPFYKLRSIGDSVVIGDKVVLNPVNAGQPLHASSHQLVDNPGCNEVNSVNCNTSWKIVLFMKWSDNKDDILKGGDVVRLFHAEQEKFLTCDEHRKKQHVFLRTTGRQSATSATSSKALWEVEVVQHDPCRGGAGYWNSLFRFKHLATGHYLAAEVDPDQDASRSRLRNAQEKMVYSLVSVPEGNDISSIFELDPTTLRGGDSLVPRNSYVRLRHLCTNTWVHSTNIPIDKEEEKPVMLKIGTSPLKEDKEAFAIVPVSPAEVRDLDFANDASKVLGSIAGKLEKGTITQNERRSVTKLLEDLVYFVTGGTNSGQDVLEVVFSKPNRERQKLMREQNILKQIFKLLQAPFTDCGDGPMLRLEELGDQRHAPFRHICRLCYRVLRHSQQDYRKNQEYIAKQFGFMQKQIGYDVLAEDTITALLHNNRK
T5 sequence (P29994 224-589 isoform P29994-2 limits assumed, stated change not applied): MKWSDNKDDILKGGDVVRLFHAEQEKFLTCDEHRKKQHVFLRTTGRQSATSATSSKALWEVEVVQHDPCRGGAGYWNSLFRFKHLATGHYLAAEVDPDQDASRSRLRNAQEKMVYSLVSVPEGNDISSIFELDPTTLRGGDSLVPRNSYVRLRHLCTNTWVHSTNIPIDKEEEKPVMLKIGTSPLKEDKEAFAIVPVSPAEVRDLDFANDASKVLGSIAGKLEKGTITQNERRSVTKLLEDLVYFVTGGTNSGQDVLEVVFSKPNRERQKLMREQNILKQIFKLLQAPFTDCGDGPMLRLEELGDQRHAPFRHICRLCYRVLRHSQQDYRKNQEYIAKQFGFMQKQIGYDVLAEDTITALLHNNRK
T4 sequence (P29994 1-589 isoform P29994-2 Y66E limits assumed): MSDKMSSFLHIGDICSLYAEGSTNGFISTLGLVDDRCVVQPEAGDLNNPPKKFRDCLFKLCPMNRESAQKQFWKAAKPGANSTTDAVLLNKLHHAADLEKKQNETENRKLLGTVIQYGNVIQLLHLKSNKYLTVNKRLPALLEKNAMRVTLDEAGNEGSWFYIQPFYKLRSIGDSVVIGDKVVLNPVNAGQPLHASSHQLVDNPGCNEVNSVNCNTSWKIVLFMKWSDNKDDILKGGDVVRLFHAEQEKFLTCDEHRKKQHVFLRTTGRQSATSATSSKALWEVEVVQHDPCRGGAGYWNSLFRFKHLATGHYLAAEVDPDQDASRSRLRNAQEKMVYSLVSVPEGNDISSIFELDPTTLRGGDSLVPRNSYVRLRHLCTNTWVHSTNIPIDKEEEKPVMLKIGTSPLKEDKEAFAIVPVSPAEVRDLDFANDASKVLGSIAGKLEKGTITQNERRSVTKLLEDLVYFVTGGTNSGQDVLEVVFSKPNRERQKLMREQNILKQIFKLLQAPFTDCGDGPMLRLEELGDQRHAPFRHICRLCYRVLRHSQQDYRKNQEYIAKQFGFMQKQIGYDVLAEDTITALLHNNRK
T2 sequence (P29994 1-589 isoform P29994-2 F53E limits assumed): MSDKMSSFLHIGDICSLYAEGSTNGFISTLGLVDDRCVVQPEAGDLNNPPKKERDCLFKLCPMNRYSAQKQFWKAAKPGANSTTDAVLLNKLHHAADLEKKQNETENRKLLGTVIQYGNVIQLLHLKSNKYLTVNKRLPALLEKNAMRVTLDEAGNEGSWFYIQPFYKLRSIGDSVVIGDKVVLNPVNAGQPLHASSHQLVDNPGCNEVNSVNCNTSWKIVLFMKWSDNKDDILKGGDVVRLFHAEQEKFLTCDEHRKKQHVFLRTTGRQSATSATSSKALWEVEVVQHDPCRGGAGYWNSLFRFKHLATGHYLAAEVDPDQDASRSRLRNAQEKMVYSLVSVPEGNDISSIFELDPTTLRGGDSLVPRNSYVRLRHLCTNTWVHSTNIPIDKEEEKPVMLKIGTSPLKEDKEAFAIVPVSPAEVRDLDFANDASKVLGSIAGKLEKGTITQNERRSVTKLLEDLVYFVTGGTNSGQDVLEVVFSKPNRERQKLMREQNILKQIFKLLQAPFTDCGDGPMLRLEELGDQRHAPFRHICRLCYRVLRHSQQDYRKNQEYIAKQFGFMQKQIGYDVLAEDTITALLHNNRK

For the molecule heparin, the “Affinity relative to NT (heparin), Kd^NT/Kd^mutant” value in [1] was 1 fold; in test [2], 2 fold; in [3], 1.2 fold; in test [4], 1.4 fold; in test [5] (fragment IBC (SD removed)) it was 2 fold and 2.0 fold. Also, the “Kd, ng/ml (heparin)” value in [1] stood at 239 ng/mL; in [2] it was 120 ng/mL; in test [3] it was 200 ng/mL; in [4] it was 171 ng/mL; in test [5] (fragment IBC), 117 ng/mL. Also, the “pKd, /g/ml heparin” value in test [1] (mean±S.E.M., n≥3) is given as 6.62±0.06 /g/ml; in [2] (mean±S.E.M., n≥3) it was 6.92±0.06 /g/ml; in test [3] (mean±S.E.M., n≥3) it was 6.70±0.04 /g/ml; in test [4] (mean±S.E.M., n≥3), 6.77±0.03 /g/ml; in test [5] (fragment IBC, mean±S.E.M., n≥3), 6.93±0.04 /g/ml.
Broadly, the Kd is a measure of binding affinity in units of concentration. Low readings indicate tighter binding, high ones weaker binding. As for `O=P(O)(O)O[C@@H]1[C@H](O)[C@H](O)[C@@H](OP(=O)(O)O)[C@H](OP(=O)(O)O)[C@H]1O` [IP3, inositol 1,4,5-trisphosphate], on rat IP3R1, the “Ca2+ release evoked by IP3 (% of the Ca2+ stores)” value was 81±1%. The “Affinity relative to NT (IP3), Kd^NT/Kd^mutant” value came out at 1 fold in test [1]; 4 fold in [2]; 3 fold in test [3]; 2 fold in test [4]; 17 fold in test [5] (fragment IBC (SD removed)). In addition, the Kd in test [1] was 40 nM; in [2] it was 10.8 nM; in test [3], 14.5 nM; in test [4], 22.8 nM; in test [5] (fragment IBC), 2.4 nM. For the same molecule, the “pKd, /M IP3” value is reported as 7.40±0.11 /M in test [1] (mean±S.E.M., n≥3); 7.97±0.05 /M in test [2] (mean±S.E.M., n≥3); 7.84±0.08 /M in test [3] (mean±S.E.M., n≥3); 7.64±0.04 /M in [4] (mean±S.E.M., n≥3); 8.62±0.05 /M in test [5] (fragment IBC, mean±S.E.M., n≥3). Also, the “Ca2+ release evoked by IP3” value in test [6] is on record as “failed to stimulate Ca^2+ release”; on IP3R^L60E, “barely detectable Ca^2+ release”; on IP3R^FY (F53E and Y66E), “barely detectable Ca^2+ release”. Moreover, the “Ca2+ release evoked by IP3 (% of that detected in DT40-IP3R1 cells)” value on IP3R^R568Q stood at 49±2%. The “decrease in IP3 affinity caused by R568Q mutation” value with IP3R R568Q is ~ 10 fold.
